Where two headings read alike, the source gives them in different places.
Biological target: T1, HDM2 (Homo sapiens, UniProt Q00987)
T1 construct: Thioredoxin (N); made in house; host or cells: E. coli strain BL21(DE3)Rosetta
Assay: HDM2 FRET assay (inhibition of binding of FITC labeled p53-pocket peptide to HDM2)
Settings: read-out: FRET IC50
Method in brief: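 Signal is read as the 520/495 nm emission ratio and converted to percent inhibition; nonlinear sigmoidal regression yields IC50. The assay mixes HDM2 (0.5 nM), FITC-p53 peptide (3 nM) and Tb anti-His antibody (0.25 nM) at 0.1% DMSO.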

[1] = 0.5 nM HDM2 (residues 17 to 125), 3nM peptide, two hour incubation at room temperature

T1 sequence (Q00987 17-125): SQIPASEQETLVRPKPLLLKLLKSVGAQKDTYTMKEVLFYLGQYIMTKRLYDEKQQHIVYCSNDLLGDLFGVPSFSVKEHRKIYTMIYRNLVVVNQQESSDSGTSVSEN

SMILES: C[C@@H]1OCCN(c2nc3nc(-c4noc(=O)[nH]4)nc(N[C@H](C)C4CCC4)c3n2C[C@H]2CC[C@H](C)CC2)[C@@H]1c1ccccc1 [Example 11.163, 3-(6-{[(1R)-1-cyclobutylethyl]amino}-7-[(trans-4-methylcyclohexyl)methyl]-8-[(2S,3R)-2-methyl-3-phenylmorpholin-4-yl]-7H-purin-2-yl)-1,2,4-oxadiazol-5(4H)-one]
- IC50 (Table 11): 21.2 nM

SMILES: C[C@@H](Nc1nc(-c2noc(=O)[nH]2)nc2nc(N3CCN(S(C)(=O)=O)C[C@H]3c3ccccc3)n(C[C@H]3CC[C@H](C)CC3)c12)C1CCC1 [Example 17.13, 3-(6-{[(1R)-1-cyclobutylethyl]amino}-7-[(trans-4-methylcyclohexyl)methyl]-8-[(2R)-4-(methylsulfonyl)-2-phenylpiperazin-1-yl]-7H-purin-2-yl)-1,2,4-oxadiazol-5(4H)-one]
- IC50 (Table 17.2): 1.86 nM

SMILES: C[C@H]1CC[C@H](Cn2c(N3CCOC[C@H]3c3ccccc3)nc3nc(-c4noc(=O)[nH]4)nc(-c4cc(Cl)cnc4F)c32)CC1 [Example 16.108, 3-{6-(5-chloro-2-fluoropyridin-3-yl)-7-[(trans-4-methylcyclohexyl)methyl]-8-[(3R)-3-phenylmorpholin-4-yl]-7H-purin-2-yl}-1,2,4-oxadiazol-5(4H)-one]
- IC50 [1]: 1.16 nM

SMILES: CCCN(c1nc2nc(-c3noc(=O)[nH]3)nc(N[C@H](C)C3CCC3)c2n1Cc1ccc(C(F)(F)F)cc1)C1CCCCC1 [Example 9.96, 3-(6-{[(1R)-1-cyclobutylethyl]amino}-8-[cyclohexyl(propyl)amino]-7-[4-(trifluoromethyl)benzyl]-7H-purin-2-yl)-1,2,4-oxadiazol-5(4H)-one]
- IC50 (Table 9): 16.2 nM

SMILES: Cc1ocnc1C1(c2nc3nc(-c4noc(=O)[nH]4)nc(-c4cccc(Cl)c4)c3n2C[C@H]2CC[C@H](C)CC2)CC1 [Example 23.101, 3-{6-(3-chlorophenyl)-7-[(trans-4-methylcyclohexyl)methyl]-8-[1-(5-methyl-1,3-oxazol-4-yl)cyclopropyl]-7H-purin-2-yl}-1,2,4-oxadiazol-5(4H)-one]
- IC50 (Table 23): 30.1 nM

SMILES: C[C@@H](Nc1nc(C(=O)O)nc2nc(C3(c4ccccc4)CC3)n(C[C@H]3CC[C@H](C)CC3)c12)C1CCC1 [Example 20.4, 6-{[(1R)-1-cyclobutylethyl]amino}-7-[(trans-4-methylcyclohexyl)methyl]-8-(1-phenylcyclopropyl)-7H-purine-2-carboxylic acid]
- IC50 (Table 20): 2.58 nM

SMILES: C=CCN(c1nc2nc(C(=O)O)nc(N[C@H](C)C3CCC3)c2n1Cc1ccc(C(F)(F)F)cc1)[C@@H](C)c1cccc(F)c1 [Example 10.27, 8-(Allyl((S)-1-(3-fluorophenyl)ethyl)amino)-6-(((R)-1-cyclobutylethyl)amino)-7-(4-(trifluoromethyl)benzyl)-7H-purine-2-carboxylic acid]
- IC50 (Table 10): 9.84 nM

SMILES: C[C@@H](Nc1nc(-c2noc(=O)[nH]2)nc2nc(N3CCCC3C[S+](C)[O-])n(C[C@H]3CC[C@H](C)CC3)c12)C1CCC1 (single isomer, unassigned) [Example 11.155]
- IC50 (Table 11): 165 nM

SMILES: C[C@@H](Nc1nc(C(=O)O)nc2nc(C(=O)NCC3CC3)n(Cc3ccc(C(F)(F)F)cc3)c12)C1CCC1 [Example 10.17, (R)-6-((1-Cyclobutylethyl)amino)-8-((cyclopropylmethyl)carbamoyl)-7-(4-(trifluoromethyl)benzyl)-7H-purine-2-carboxylic acid]
- IC50 (Table 10): 67.7 nM

SMILES: C[C@H]1CC[C@H](Cn2c(N3CCOC[C@H]3c3ccccc3)nc3nc(-c4noc(=O)[nH]4)nc(-c4cccc(Cl)c4F)c32)CC1 [Example 16.23, 3-{6-(3-chloro-2-fluorophenyl)-7-[(trans-4-methylcyclohexyl)methyl]-8-[(3R)-3-phenylmorpholin-4-yl]-7H-purin-2-yl}-1,2,4-oxadiazol-5(4H)-one]
- IC50 [1]: 1.44 nM

SMILES: CC(C)C1CCCN1c1nc2nc(-c3noc(=O)[nH]3)nc(N[C@H](C)C3CCC3)c2n1C[C@H]1CC[C@H](C)CC1 (stereo partly drawn) [Example 11.46, 3-(6-{[(1R)-1-cyclobutylethyl]amino}-7-[(trans-4-methylcyclohexyl)methyl]-8-[2-(1-methylethyl)pyrrolidin-1-yl]-7H-purin-2-yl)-1,2,4-oxadiazol-5(2H)-one]
- IC50 (Table 11): 4.46 nM

SMILES: C=C(c1nc2nc(-c3noc(=O)[nH]3)nc(N[C@H](C)C3CCC3)c2n1C[C@H]1CC[C@H](C)CC1)C(C)(C)C [Example 22.11, 3-(6-{[(1R)-1-cyclobutylethyl]amino}-8-(2,2-dimethyl-1-methylidenepropyl)-7-[(trans-4-methylcyclohexyl)methyl]-7H-purin-2-yl)-1,2,4-oxadiazol-5(4H)-one]
- IC50 (Table 22): 5.73 nM

SMILES: COCC1COCCN1c1nc2nc(-c3noc(=O)[nH]3)nc(N[C@H](C)C3CCC3)c2n1C[C@H]1CC[C@H](C)CC1 (single isomer, unassigned) [Example 11.151]
- IC50 (Table 11): 20.9 nM

SMILES: CC(c1nc2nc(-c3noc(=O)[nH]3)nc(N[C@H](C)C3CCC3)c2n1C[C@H]1CC[C@H](C)CC1)C1CCOCC1 (stereo partly drawn) [Example 21.21, 3-(6-{[(1R)-1-cyclobutylethyl]amino}-7-[(trans-4-methylcyclohexyl)methyl]-8-[1-(tetrahydro-2H-pyran-4-yl)ethyl]-7H-purin-2-yl)-1,2,4-oxadiazol-5(4H)-one]
- IC50 (Table 21): 7.17 nM

SMILES: Cc1cccc(-c2nc(-c3n[nH]c(=O)o3)nc3nc(N4CCOCC4)n(C[C@H]4CC[C@H](C)CC4)c23)c1 [Example 16.3, 5-(7-(((trans)-4-methylcyclohexyl)methyl)-8-morpholino-6-(m-tolyl)-7H-purin-2-yl)-1,3,4-oxadiazol-2(3H)-one]
- IC50 [1]: 563 nM

SMILES: C[C@@H](Nc1nc(C(=O)O)nc2nc(C3CCCCC3c3ccccc3)n(C[C@H]3CC[C@H](C)CC3)c12)C1CCC1 (stereo partly drawn) [Example 21.17, 6-{[(1R)-1-cyclobutylethyl]amino}-7-[(trans-4-methylcyclohexyl)methyl]-8-(2-phenylcyclohexyl)-7H-purine-2-carboxylic acid]
- IC50 (Table 21): 4.3 nM

SMILES: C[C@@H](Nc1nc(-c2noc(=O)[nH]2)nc2nc(N3CCCC3CC(C)(C)C)n(C[C@H]3CC[C@H](C)CC3)c12)C1CCC1 (stereo partly drawn) [Example 11.37, 3-(6-{[(1R)-1-cyclobutylethyl]amino}-8-[2-(2,2-dimethylpropyl)pyrrolidin-1-yl]-7-[(trans-4-methylcyclohexyl)methyl]-7H-purin-2-yl)-1,2,4-oxadiazol-5(2H)-one]
- IC50 (Table 11): 6.98 nM

SMILES: CC([C@H]1CC[C@H](C)CC1)n1c(N2CCOC[C@H]2c2ccccc2)nc2nc(-c3n[nH]c(=O)o3)nc(-c3cncc(Cl)c3)c21 (single isomer, unassigned) [Example 18.14]
- IC50 (Table 18): 0.62 nM

SMILES: C=C(c1nc2nc(-c3noc(=O)n3C)nc(N[C@H](C)C3CCC3)c2n1C[C@H]1CC[C@H](C)CC1)C(C)(C)C [Example 22.33, 3-(6-{[(1R)-1-cyclobutylethyl]amino}-8-(2,2-dimethyl-1-methylidenepropyl)-7-[(trans-4-methylcyclohexyl)methyl] -7H-purin-2-yl)-4-methyl-1,2,4-oxadiazol-5(4H)-one]
- IC50 (Table 22): 291 nM

SMILES: CC([C@H]1CC[C@H](C)CC1)n1c(N2CCC[C@H]2CF)nc2nc(-c3noc(=O)[nH]3)nc(-c3cncc(Cl)c3)c21 (single isomer, unassigned) [Example 18.46]
- IC50 (Table 18): 5.49 nM

SMILES: C[C@@H](Nc1nc(-c2noc(=O)[nH]2)nc2nc(C(O)C3CCC3)n(C[C@H]3CC[C@H](C)CC3)c12)C1CCC1 (stereo partly drawn) [Example 22.57, 3-(6-{[(1R)-1-cyclobutylethyl]amino}-8-[cyclobutyl(hydroxy)methyl]-7-[(trans-4-methylcyclohexyl)methyl] -7H-purin-2-yl)-1,2,4-oxadiazol-5(4H)-one]
- IC50 (Table 22): 9.75 nM

SMILES: CC(c1ccc(F)cc1)c1nc2nc(-c3noc(=O)[nH]3)nc(N[C@H](C)C3CCC3)c2n1C[C@H]1CC[C@H](C)CC1 (stereo partly drawn) [Example 21.31, 3-(6-{[(1R)-1-cyclobutylethyl]amino}-8-[1-(4-fluorophenyl)ethyl]-7-[(trans-4-methylcyclohexyl)methyl]-7H-purin-2-yl)-1,2,4-oxadiazol-5(4H)-one]
- IC50 (Table 21): 10.5 nM

SMILES: Cc1cccc(-c2nc3ncnc(N[C@H](CCCO)C4CCC4)c3n2Cc2ccc(C(F)(F)F)cc2)c1 [Example 7.3, (4R)-4-cyclobutyl-4-({8-(3-methylphenyl)-7-[4-(trifluoromethyl)benzyl]-7H-purin-6-yl}amino)butan-1-ol]
- IC50 (Table 7): 3240 nM

SMILES: Cc1cccc(-c2nc3nc(C(=O)O)nc(N4CCCCC4C4CCC4)c3n2Cc2ccc(C(F)(F)F)cc2)c1 (stereo not drawn) [Example 6.95, 6-(2-cyclobutylpiperidin-1-yl)-8-(3-methylphenyl)-7-[4-(trifluoromethyl)benzyl]-7H-purine-2-carboxylic acid]
- IC50 (Table 6): 271 nM

SMILES: C[C@@H](Nc1nc(-c2noc(=O)[nH]2)nc2nc(N3CCOCC3c3ccccc3Cl)n(C[C@H]3CC[C@H](C)CC3)c12)C1CCC1 (single isomer, unassigned) [Example 11.118]
- IC50 (Table 11): 0.568 nM

SMILES: C[C@H](C1CCC1)N(C)c1nc(C(=O)O)nc2nc(-c3cc(C(C)(C)C)ccn3)n(C[C@H]3CC[C@H](C)CC3)c12 [Example 15.20, 8-(4-tert-butylpyridin-2-yl)-6-{[(1R)-1-cyclobutylethyl] (methyl)amino} -7-[(trans-4-methylcyclohexyl)methyl]-7H-purine-2-carboxylic acid]
- IC50 [1]: 17.9 nM

SMILES: C[C@@H](Nc1nc(-c2noc(=O)[nH]2)nc2nc(N3CCCCC3CF)n(Cc3ccc(C(F)(F)F)cc3)c12)C1CCC1 (stereo partly drawn) [Example 9.90, 3-(6-{[(1R)-1-cyclobutylethyl]amino}-8-[2-(fluoromethyl)piperidin-1-yl]-7-[4-(trifluoromethyl)benzyl]-7H-purin-2-yl)-1,2,4-oxadiazol-5(4H)-one]
- IC50 (Table 9): 12.1 nM
